Columns and labels:
[1] = Freeze-thaw stability in spiked pooled human plasma; type: physicochemical
[2] = Autosampler stability of ready for injection samples; type: physicochemical, human
[3] = design: method as in supplement references [1-55] as printed per drug; settings: minimum steady-state blood plasma concentration after multiple dose administration; ref supplement references [1-55] per drug; cited from earlier work
[4] = Long-term stability in spiked pooled human plasma
[5] = Short-term stability in spiked pooled human plasma (bench-top, 4 °C, 56 °C)

NC(=O)c1cccc2cn(-c3ccc([C@@H]4CCCNC4)cc3)nc12 [Niraparib]
Freeze-Thaw Accuracy [%] ([1]; validation standard 2xLLOV): 96.8%
Freeze-Thaw Accuracy [%] ([1]; validation standard LLOV): 98.0%
Freeze-Thaw Accuracy [%] ([1]; validation standard MOV): 96.5%
Freeze-Thaw Accuracy [%] ([1]; validation standard ULOV): 97.1%
Autosampler (24h, 4°C) Accuracy [%] ([2]; validation standard 2xLLOV): 103.0%
Autosampler (72h, 4°C) Accuracy [%] ([2]; validation standard 2xLLOV): 99.6%
Autosampler (24h, 4°C) Accuracy [%] ([2]; validation standard LLOV): 96.8%
Autosampler (72h, 4°C) Accuracy [%] ([2]; validation standard LLOV): 96.3%
Autosampler (24h, 4°C) Accuracy [%] ([2]; validation standard MOV): 104.6%
Autosampler (72h, 4°C) Accuracy [%] ([2]; validation standard MOV): 100.5%
Autosampler (24h, 4°C) Accuracy [%] ([2]; validation standard ULOV): 100.8%
Autosampler (72h, 4°C) Accuracy [%] ([2]; validation standard ULOV): 100.1%
cmin [3]: 649 ng/mL
Long-term stability, 1 month, -20°C Accuracy [%] ([4]; validation standard 2xLLOV): 101.4%
Long-term stability, 1 month, -80°C Accuracy [%] ([4]; validation standard 2xLLOV): 94.5%
Long-term stability, 2 month, -20°C Accuracy [%] ([4]; validation standard 2xLLOV): 104.1%
Long-term stability, 2 month, -80°C Accuracy [%] ([4]; validation standard 2xLLOV): 106.0%
Long-term stability, 3 month, -20°C Accuracy [%] ([4]; validation standard 2xLLOV): 99.8%
Long-term stability, 3 month, -80°C Accuracy [%] ([4]; validation standard 2xLLOV): 95.7%
Long-term stability, 6 weeks, 4°C, without daylight Accuracy [%] ([4]; validation standard 2xLLOV): 96.1%
Long-term stability, 1 month, -20°C Accuracy [%] ([4]; validation standard LLOV): 97.8%
Long-term stability, 1 month, -80°C Accuracy [%] ([4]; validation standard LLOV): 93.4%
Long-term stability, 2 month, -20°C Accuracy [%] ([4]; validation standard LLOV): 101.8%
Long-term stability, 2 month, -80°C Accuracy [%] ([4]; validation standard LLOV): 102.4%
Long-term stability, 3 month, -20°C Accuracy [%] ([4]; validation standard LLOV): 96.1%
Long-term stability, 3 month, -80°C Accuracy [%] ([4]; validation standard LLOV): 95.4%
Long-term stability, 6 weeks, 4°C, without daylight Accuracy [%] ([4]; validation standard LLOV): 94.3%
Long-term stability, 1 month, -20°C Accuracy [%] ([4]; validation standard MOV): 99.8%
Long-term stability, 1 month, -80°C Accuracy [%] ([4]; validation standard MOV): 99.6%
Long-term stability, 2 month, -20°C Accuracy [%] ([4]; validation standard MOV): 105.3%
Long-term stability, 2 month, -80°C Accuracy [%] ([4]; validation standard MOV): 103.9%
Long-term stability, 3 month, -20°C Accuracy [%] ([4]; validation standard MOV): 102.2%
Long-term stability, 3 month, -80°C Accuracy [%] ([4]; validation standard MOV): 100.4%
Long-term stability, 6 weeks, 4°C, without daylight Accuracy [%] ([4]; validation standard MOV): 104.5%
Long-term stability, 1 month, -20°C Accuracy [%] ([4]; validation standard ULOV): 100.8%
Long-term stability, 1 month, -80°C Accuracy [%] ([4]; validation standard ULOV): 98.5%
Long-term stability, 2 month, -20°C Accuracy [%] ([4]; validation standard ULOV): 103.3%
Long-term stability, 2 month, -80°C Accuracy [%] ([4]; validation standard ULOV): 104.1%
Long-term stability, 3 month, -20°C Accuracy [%] ([4]; validation standard ULOV): 100.4%
Long-term stability, 3 month, -80°C Accuracy [%] ([4]; validation standard ULOV): 101.8%
Long-term stability, 6 weeks, 4°C, without daylight Accuracy [%] ([4]; validation standard ULOV): 96.4%
Short-time stability (1h, 56°C) Accuracy [%] ([5]; validation standard 2xLLOV): 53.4%
Short-time stability (24h, 4°C, without daylight) Accuracy [%] ([5]; validation standard 2xLLOV): 96.9%
Short-time stability (24h, RT, with daylight) Accuracy [%] ([5]; validation standard 2xLLOV): 95.2%
Short-time stability (24h, RT, without daylight) Accuracy [%] ([5]; validation standard 2xLLOV): 93.8%
Short-time stability (1h, 56°C) Accuracy [%] ([5]; validation standard LLOV): 46.8%
Short-time stability (24h, 4°C, without daylight) Accuracy [%] ([5]; validation standard LLOV): 93.8%
Short-time stability (24h, RT, with daylight) Accuracy [%] ([5]; validation standard LLOV): 92.3%
Short-time stability (24h, RT, without daylight) Accuracy [%] ([5]; validation standard LLOV): 91.9%
Short-time stability (1h, 56°C) Accuracy [%] ([5]; validation standard MOV): 51.1%
Short-time stability (24h, 4°C, without daylight) Accuracy [%] ([5]; validation standard MOV): 100.2%
Short-time stability (24h, RT, with daylight) Accuracy [%] ([5]; validation standard MOV): 97.6%
Short-time stability (24h, RT, without daylight) Accuracy [%] ([5]; validation standard MOV): 96.5%
Short-time stability (1h, 56°C) Accuracy [%] ([5]; validation standard ULOV): 43.8%
Short-time stability (24h, 4°C, without daylight) Accuracy [%] ([5]; validation standard ULOV): 92.7%
Short-time stability (24h, RT, with daylight) Accuracy [%] ([5]; validation standard ULOV): 95.8%
Short-time stability (24h, RT, without daylight) Accuracy [%] ([5]; validation standard ULOV): 94.0%
